Legend:
[1] = biological target: T1, adenosine A2a receptor (Human) (Homo sapiens, UniProt P29274); experiment: c-AMP generating action in cell expressing adenosine A2a receptor; assay type: cell-based; conditions: HEK293 cell expressing human A2a; 100% = c-AMP caused by 1 μM CGS-21680; read-out: A2a Agonistic Action (EC50)
T1 construct: host or cells: HEK293
Method: (1) c-AMP Generating Action in Cell Expressing Adenosine A2a Receptor
The test was carried out as mentioned below with reference to the method disclosed in the reference (Klotz k. N. et al., Naunyn-Schmiedeberg's Arch. Pharmacol., (1998) 357, 1-9; Shryock J. C. et al., Molecular Pharmacology, (1998) 53, 886-893).
As to the cell, HEK293 cell expressing adenosine A2a receptor (Human) (PerkinElmer Life Sciences, Code No. RBHA2AC) was used.
As to the culture medium, Dulbecco's modified Eagles medium (DMEM) including 10% FBS (Fetal bovine serum) and 1 mM of sodium pyruvate was used.
The cell was placed on 96 well plate (1×10^5/well), and cultured overnight. After removing off the supernatant, to each well, 0.1 ml of DMEM (without FBS) containing 20 mM HEPES, 0.1 mM of IBMX (3-isobutyl-1-methylxanthine) and 2 unit/mL adenosine deaminase was added, and they were incubated at 37° C. for 30 minutes. To each well, 0.1 ml of the culture medium including the DMSO solution of the test compound in an appropriate concentration was added and they were incubated for additional 30 minutes. After removing off the supernatant, the cytolytic solution was added to quench the reaction. The amount of c-AMP in each well was measured by using the c-AMP enzyme immunoassay (EIA) system (Amersham Biosciences, Code No. RPN225).
The same assay was repeated using CGS-21680 (2-p-carboxyethyl)phenethylamino-5′-N-ethylcarboxamidoadenosine hydrochloride, (Sigma, code C141) as reference compound. The amount of resultant c-AMP in the medium, caused by 1 μM of reference compound, was defined to be 100%. A concentration of assayed compound in the medium, producing 50% c-AMP amounts, was calculated to be EC50 value.

A1 receptor = biological target: T2, A1 receptor (Rattus norvegicus, UniProt P25099); experiment: Adenosine A1 agonistic action ([35S]GTPγS binding, rat cerebral cortex cell membrane); assay type: biochemical, male Wistar rats; conditions: percentage to 100% of CPA 1 μM
T2 construct: cerebral cortex of male Wistar rats (Charles River Japan, Inc) was extirpated; from tissue; host or cells: cerebral cortex of male Wistar rats, cell membrane preparation
T2 sequence (P25099 1-326): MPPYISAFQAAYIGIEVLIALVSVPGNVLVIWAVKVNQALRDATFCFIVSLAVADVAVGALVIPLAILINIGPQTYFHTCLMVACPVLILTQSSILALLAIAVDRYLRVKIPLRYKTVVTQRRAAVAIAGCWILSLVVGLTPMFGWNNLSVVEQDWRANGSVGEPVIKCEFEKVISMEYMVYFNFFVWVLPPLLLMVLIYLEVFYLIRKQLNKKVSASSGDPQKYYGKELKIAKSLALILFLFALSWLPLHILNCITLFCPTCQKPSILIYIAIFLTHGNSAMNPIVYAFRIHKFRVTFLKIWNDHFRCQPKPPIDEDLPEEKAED
Method: (2) Adenosine A1 Agonistic Action
The test was carried out as mentioned below with reference to the method disclosed in the literature (Shryock J. C. et al., Molecular Pharmacology, (1998) 53, 886-893; Ito H. et al., European Journal of Pharmacology, (1999) 365, 309-315). That is, cerebral cortex of male Wistar rats (Charles River Japan, Inc) was extirpated, thereto Tris buffer (50 mM Tris-HCl: pH 7.4) was added, it was homogenized, and then centrifuged (1000×g, 10 min). The supernatant was taken, and centrifuged (20,000×g, 20 min). After removing off the supernatant, the precipitate was suspended in Tris buffer, and recentrifuged (20,000×g, 20 min). After removing off the supernatant, the precipitate was suspended in Tris buffer including 2 units/mL ADA (adenosine deaminase) and reserved at −80° C. until used as a liquid preparation of cell membrane for the following tests.
The above liquid preparation of cell membrane in an amount corresponding to 10 μg of cell membrane was added to Tris-buffer comprising 5 mM of MgCl2, 1 mM of EDTA, 1 mM of dithiothreitol, 100 mM of NaCl, 0.01 mM of GDP (guanosine diphosphate), 5 mg/mL of BSA and 2 units/mL of ADA and the mixture was incubated at 25° C. for 30 minutes. Additionally, [^35S]GTPγS (Guanosine 5′-[γ-thio]triphosphate) (the final concentration: 0.4 nM) and the test compound of the given concentration (which was calculated based on the final concentration of the test compound) were added to the mixture and the resulting mixture was incubated at 25° C. for 45 minutes. The reaction mixture was filtrated through a glass fiber filter (unifilter-96 GF/B, Perkin Elmer Life Sciences) to quench reaction. The filter was washed 5 times with ice-cooled Tris-buffer including 5 mM MgCl2. The radioactivity of the filter was measured with Top count NXT(Perkin Elmer Life Sciences). The nonspecific binding was shown as the binding activity of [^35S]GTPγS in the presence of 0.01 mM GTPγS.
The activity (%, A1 agonistic action) of each test compound was calculated on the basis of the test result ([^35S]GTPγS binding activity) derived with 1 μM of CPA (N^6-Cyclopentyladenosine, Sigma, code C-8031) in control which was counted as 100%.

[2] = tested on: Intraocular Pressure in Rabbit; experiment: Measuring test for intraocular pressure in rabbit; assay type: in vivo, Female New Zealand white rabbits; conditions: mean±standard error
Method: (3) Measuring Test for Intraocular Pressure in Rabbit
The test compounds were dissolved in 10 mM of phosphate buffer (pH 7.5) (hereinafter, referred to as “vehicle of ophthalmic preparation”), and they were instilled in a given concentration. In addition, the compounds insoluble in that concentration was used as a suspension. Female New Zealand white rabbits (KITAYAMA LABES Co., Ltd.) whose weights were 2.0-4.0 kg were used.
The measurement of the intraocular pressure was carried out using Pneumatonometer (Model 30 Classic, Mentor company) without anesthesia. In addition, before the measurement of the intraocular pressure, the surface anesthesia with 0.4% oxybuprocaine hydrochloride (“Benoxil” 0.4% ophthalmic solution, Santen Pharmaceutical Co., Ltd.) was carried out.
The animals whose intraocular pressure was stable before instillation were selected, and these animals were divided to every 4 animal in each one group, 50 μL of eye drops including each the test compound was administered to one-sided eye and vehicle was administered to contralateral eye as the control eye. The measurement of intraocular pressure was carried out before instillation and after 0.5, 1, 2, 3, 4 and 6 hours from instillation. The effect on the intraocular pressure was shown as the difference from pre-instillation (ΔIOP, mmHg, mean±standard error). The following Tables 14 and 15 show the results of Control Compounds A and B used as 1% suspensions which are the same as in the pharmacological test (1).
The animals were pretreated as mentioned above, and among them animals whose intraocular pressure was stable before instillation were selected, and these animals were divided to every 5 to 8 animal in each one group. Every two group was used for each of the test compounds. The test compound was administered unilaterally to the eye of the test group rabbit and the intraocular pressure was measured. The vehicle was administered unilaterally to the eye of the control group rabbit and the intraocular pressure was measured. As mentioned above, the measurement of intraocular pressure was carried out before instillation and after 0.5, 1, 2, 3, 4 and 6 hours from instillation, and the effect on the intraocular pressure was shown as the difference from pre-instillation (ΔIOP, mmHg, mean±standard error).

[3] = 0.01% ophthalmic solution, test group, 0.5 hr
[4] = 0.01% ophthalmic solution, test group, 1 hr
[5] = 0.01% ophthalmic solution, test group, 2 hr
[6] = 0.01% ophthalmic solution, test group, 3 hr
[7] = 0.01% ophthalmic solution, test group, 4 hr
[8] = 0.01% ophthalmic solution, test group, 6 hr

T1 sequence (P29274 whole entry): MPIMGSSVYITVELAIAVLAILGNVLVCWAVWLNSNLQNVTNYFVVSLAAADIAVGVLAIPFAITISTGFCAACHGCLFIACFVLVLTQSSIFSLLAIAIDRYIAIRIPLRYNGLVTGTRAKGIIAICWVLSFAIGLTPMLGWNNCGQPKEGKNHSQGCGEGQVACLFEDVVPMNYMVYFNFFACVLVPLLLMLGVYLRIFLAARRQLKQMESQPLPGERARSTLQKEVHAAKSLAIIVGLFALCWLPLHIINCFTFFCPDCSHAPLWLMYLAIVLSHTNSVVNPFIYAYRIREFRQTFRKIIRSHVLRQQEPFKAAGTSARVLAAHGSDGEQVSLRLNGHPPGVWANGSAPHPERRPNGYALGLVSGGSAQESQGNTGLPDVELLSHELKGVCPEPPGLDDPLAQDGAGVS

EC50 [1]	A1 Agonistic Action (%) (A1 receptor; test compound 10 nM)	A1 Agonistic Action (%) (A1 receptor; test compound 100 nM)	A1 Agonistic Action (%) (A1 receptor; test compound 1 μM)	Compound	ΔIOP (mmHg) [2, 3]	ΔIOP (mmHg) [2, 4]	ΔIOP (mmHg) [2, 5]	ΔIOP (mmHg) [2, 6]	ΔIOP (mmHg) [2, 7]	ΔIOP (mmHg) [2, 8]	further results
> 1000 nM	14%	55%	79%	N#Cc1c(N)nc(SCc2csc(-c3ccc(Cl)cc3)n2)c(C#N)c1-c1ccc(OCCO)cc1 [Comparative Compound A, reference compound]	–	–	–	–	–	–	–
11.9 nM	–	–	–	CC(=O)Nc1ccc(-c2nc(SCc3cccc(C)n3)nc(N)c2C#N)cc1 [Example 2, N-{4-[6-amino-5-cyano-2-(6-methylpyridin-2-ylmethylsulfanyl)pyrimidin-4-yl]phenyl}acetamide]	–	–	–	–	–	–	ΔIOP (mmHg) ([2]; 1% suspended ophthalmic preparation, test group, 0.5 hr): 1.1 ± 0.6 mmHg; ΔIOP (mmHg) ([2]; 1% suspended ophthalmic preparation, test group, 1 hr): −3.1 ± 0.6 mmHg; ΔIOP (mmHg) ([2]; 1% suspended ophthalmic preparation, test group, 2 hr): −4.2 ± 0.7 mmHg; ΔIOP (mmHg) ([2]; 1% suspended ophthalmic preparation, test group, 3 hr): −4.0 ± 0.9 mmHg; ΔIOP (mmHg) ([2]; 1% suspended ophthalmic preparation, test group, 4 hr): −2.0 ± 0.4 mmHg; ΔIOP (mmHg) ([2]; 1% suspended ophthalmic preparation, test group, 6 hr): 0.4 ± 0.9 mmHg
7 nM	–	–	–	CC(=O)Nc1ccc(-c2nc(SCc3cccc(CCC(=O)N4CCC(N5CCCCC5)CC4)n3)nc(N)c2C#N)cc1.Cl [Example 69, N-(4-{6-amino-2-[6-(3-[1,4′]bipiperidinyl-1′-yl-3-oxopropyl)pyridin-2-ylmethylsulfanyl]-5-cyanopyrimidin-4-yl}phenyl)acetamide hydrochloride]	−1.5 ± 1.0 mmHg	−4.9 ± 0.7 mmHg	−3.6 ± 0.4 mmHg	−3.8 ± 0.7 mmHg	−2.6 ± 1.0 mmHg	0.5 ± 0.9 mmHg	–

The next lines start with the compound.

Compound	EC50 [1]	A1 Agonistic Action (%) (A1 receptor; test compound 10 nM)	A1 Agonistic Action (%) (A1 receptor; test compound 100 nM)	A1 Agonistic Action (%) (A1 receptor; test compound 1 μM)	ΔIOP (mmHg) [2, 3]	ΔIOP (mmHg) [2, 4]	ΔIOP (mmHg) [2, 5]	ΔIOP (mmHg) [2, 6]	ΔIOP (mmHg) [2, 7]	ΔIOP (mmHg) [2, 8]	further results
CC(=O)Nc1ccc(-c2c(C#N)c(N)nc(SCc3ccccn3)c2C#N)cc1 [Comparative Compound B, reference compound]	14.3 nM	20%	63%	77%	–	–	–	–	–	–	–
CC(=O)Nc1ccc(-c2nc(SCc3cccc(CCC(=O)N4CCN(C)CC4)n3)nc(N)c2C#N)cc1 [Example 46, N-[4-(6-amino-5-cyano-2-{6-[3-(4-methylpiperazin-1-yl)-3-oxopropyl]pyridin-2-ylmethylsulfanyl}pyrimidin-4-yl)phenyl]-acetamide]	7.4 nM	4%	26%	45%	−0.6 ± 0.6 mmHg	−4.4 ± 0.8 mmHg	−4.9 ± 0.6 mmHg	−3.8 ± 0.7 mmHg	−2.9 ± 0.5 mmHg	−0.5 ± 0.6 mmHg	–
CCN(CC)CCN1CCN(C(=O)CCc2cccc(CSc3nc(N)c(C#N)c(-c4ccc(NC(C)=O)cc4)n3)n2)CC1.Cl [Example 75, N-{4-[6-amino-5-cyano-2-(6-{3-[4-(2-diethylaminoethyl)piperazin-1-yl]-3-oxopropyl}pyridin-2-ylmethylsulfanyl)pyrimidin-4-yl]phenyl}acetamide hydrochloride]	3 nM	3%	22%	50%	−0.8 ± 0.4 mmHg	−5.1 ± 0.5 mmHg	−5.3 ± 0.9 mmHg	−4.0 ± 0.9 mmHg	−4.3 ± 0.9 mmHg	−1.3 ± 0.4 mmHg	–
CC(=O)Nc1ccc(-c2nc(SCc3cccc(CCC(=O)N(C)C4CCN(C)CC4)n3)nc(N)c2C#N)cc1.Cl [Example 67, 3-{6-[4-(4-acetylaminophenyl)-6-amino-5-cyanopyrimidin-2-ylsulfanylmethyl]pyridin-2-yl}-N-methyl-N-(1-methylpiperidin-4-yl)propionamide hydrochloride]	6.8 nM	–	–	–	–	–	–	–	–	–	ΔIOP (mmHg) ([2]; 0.03% ophthalmic solution, rabbit, instillation, 0.5 hr after instillation, difference from pre-instillation): −1.1 ± 1.0 mmHg; ΔIOP (mmHg) ([2]; 0.03% ophthalmic solution, rabbit, instillation, 1 hr after instillation, difference from pre-instillation): −5.3 ± 0.7 mmHg; ΔIOP (mmHg) ([2]; 0.03% ophthalmic solution, rabbit, instillation, 2 hr after instillation, difference from pre-instillation): −4.6 ± 0.7 mmHg; ΔIOP (mmHg) ([2]; 0.03% ophthalmic solution, rabbit, instillation, 3 hr after instillation, difference from pre-instillation): −4.6 ± 0.9 mmHg; ΔIOP (mmHg) ([2]; 0.03% ophthalmic solution, rabbit, instillation, 4 hr after instillation, difference from pre-instillation): −4.2 ± 0.7 mmHg; ΔIOP (mmHg) ([2]; 0.03% ophthalmic solution, rabbit, instillation, 6 hr after instillation, difference from pre-instillation): −2.0 ± 0.7 mmHg

Source: patent publication US7989446B2, “4-amino 5-cyanopyrimidine derivatives” (Otsuka Pharmaceutical Co., Ltd., priority 2004, dated 2011)
